From patent publication US7858635B2 (priority 2005, dated 2010)

Legend:
M4 muscarinic receptor = target: T1, M4 muscarinic receptor (Homo sapiens, UniProt P08173); test: Functional mobilization of intracellular calcium (FLIPR, Fluo-3), M4-CHO cells; assay type: cell-based; settings: for Emax: compound nos. 455-509, 100% efficacy is the maximum response obtained with the Carbachol control, read-out: M4 Efficacy; for M4 Activity: compounds 455-509
T1 construct: expressed in transfected cells; host or cells: CHO cells (M4-CHO, under puromycin, zeocin and blasticidin selection)
T1 sequence (P08173 1-479): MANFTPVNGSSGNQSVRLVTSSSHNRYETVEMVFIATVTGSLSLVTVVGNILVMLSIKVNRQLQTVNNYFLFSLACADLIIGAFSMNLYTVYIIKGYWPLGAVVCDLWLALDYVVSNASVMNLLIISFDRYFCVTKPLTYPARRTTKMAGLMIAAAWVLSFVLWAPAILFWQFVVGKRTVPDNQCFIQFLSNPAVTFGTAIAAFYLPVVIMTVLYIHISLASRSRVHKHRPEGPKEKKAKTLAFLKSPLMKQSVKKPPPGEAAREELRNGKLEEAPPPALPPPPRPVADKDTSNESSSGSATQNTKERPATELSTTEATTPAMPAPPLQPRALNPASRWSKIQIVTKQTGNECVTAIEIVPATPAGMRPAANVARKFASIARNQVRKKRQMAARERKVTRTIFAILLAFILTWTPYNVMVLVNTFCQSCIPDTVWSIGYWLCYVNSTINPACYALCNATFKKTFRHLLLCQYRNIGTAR
Summary of the method: (§1)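 Intracellular calcium was tracked by fluorescence (488/540 nm) over 60 sec after compound addition to dye-loaded CHO cells expressing the receptor. Inhibitory activity used a 15 min pre-incubation before carbachol at the subtype EC80.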

M1 muscarinic receptor = target: T2, M1 muscarinic receptor (Homo sapiens, UniProt P11229); test: Functional mobilization of intracellular calcium (FLIPR, Fluo-3), M1-CHO cells; assay type: cell-based; settings: for Emax: compound nos. 455-509, 100% efficacy is the maximum response obtained with the Carbachol control, read-out: M1 Efficacy; for M1 Activity: compounds 455-509
T2 construct: expressed in transfected cells; host or cells: CHO cells (M1-CHO, under zeocin and G418 selection)
T2 sequence (P11229 1-460): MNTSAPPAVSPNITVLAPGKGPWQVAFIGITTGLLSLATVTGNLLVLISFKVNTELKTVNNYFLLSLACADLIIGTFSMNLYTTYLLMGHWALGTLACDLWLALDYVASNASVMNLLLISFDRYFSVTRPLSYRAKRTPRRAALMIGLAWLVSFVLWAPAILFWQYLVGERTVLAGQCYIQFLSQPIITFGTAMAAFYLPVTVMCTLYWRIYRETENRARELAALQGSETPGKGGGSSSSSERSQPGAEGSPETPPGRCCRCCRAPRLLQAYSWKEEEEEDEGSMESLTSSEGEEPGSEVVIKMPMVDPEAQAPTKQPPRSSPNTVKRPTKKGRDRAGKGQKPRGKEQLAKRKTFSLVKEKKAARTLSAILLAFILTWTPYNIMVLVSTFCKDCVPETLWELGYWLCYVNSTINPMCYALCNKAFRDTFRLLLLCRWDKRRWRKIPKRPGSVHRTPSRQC
Summary of the method: as §1

| Compound | Emax (M4 muscarinic receptor) | M4 Activity (M4 muscarinic receptor) | Emax (M1 muscarinic receptor) | M1 Activity (M1 muscarinic receptor) |
| --- | --- | --- | --- | --- |
| CN(C)C(=O)N1CC2(CCN(C3CCN(c4ncnc5ccsc45)CC3)CC2)c2cc(F)ccc21 [compound 496] | 25 to 100% | ++ (activity was measured to be between 2.0 μM and 5.0 μM) | > 100% | + (activity was measured to be greater than or equal to 5.0 μM) |
| CN(C)C(=O)N1CC2(CCN(C3CCN(c4cnc5ccccc5n4)CC3)CC2)c2ccccc21 [compound 497] | 25 to 100% | ++ (activity was measured to be between 2.0 μM and 5.0 μM) | > 100% | +++ (activity was measured to be less than or equal to 2.0 μM) |
| CCc1nsc(N2CCC(N3CCC4(CC3)CN(C(C)=O)c3ccccc34)CC2)n1 [compound 498] | 25 to 100% | ++ (activity was measured to be between 2.0 μM and 5.0 μM) | > 100% | +++ (activity was measured to be less than or equal to 2.0 μM) |
| Cc1csc(N2CCC(N3CCC4(CC3)CN(C(=O)N(C)C)c3ccccc34)CC2)n1 [compound 499] | 25 to 100% | ++ (activity was measured to be between 2.0 μM and 5.0 μM) | > 100% | + (activity was measured to be greater than or equal to 5.0 μM) |
| CN(C)C(=O)N1CC2(CCN(C3CC4CCC(C3)N4c3cnccn3)CC2)c2ccccc21 (stereo not shown) [compound 500] | 25 to 100% | ++ (activity was measured to be between 2.0 μM and 5.0 μM) | > 100% | +++ (activity was measured to be less than or equal to 2.0 μM) |
| Cc1nsc(N2C3CCC2CC(N2CCC4(CCN(C(=O)N(C)C)c5ccccc54)CC2)C3)n1 (stereo not shown) [compound 501] | 25 to 100% | ++ (activity was measured to be between 2.0 μM and 5.0 μM) | > 100% | +++ (activity was measured to be less than or equal to 2.0 μM) |
| CCc1nsc(N2CCC(N3CCC4(CC3)C[C@H](N(CC(F)(F)F)C(C)=O)c3ccccc34)CC2)n1 [compound 502] | 25 to 100% | ++ (activity was measured to be between 2.0 μM and 5.0 μM) | 25 to 100% | ++ (activity was measured to be between 2.0 μM and 5.0 μM) |
| CC(=O)N1CC2(CCN(C3CCN(c4cncc(C5CC5)n4)CC3)CC2)c2ccccc21 [compound 503] | < 25% | ++ (activity was measured to be between 2.0 μM and 5.0 μM) | < 25% | +++ (activity was measured to be less than or equal to 2.0 μM) |
| CN(C)C(=O)N1CC2(CCN(C3CCN(c4nccs4)CC3)CC2)c2ccccc21 [compound 504] | 25 to 100% | ++ (activity was measured to be between 2.0 μM and 5.0 μM) | 25 to 100% | + (activity was measured to be greater than or equal to 5.0 μM) |
| CCc1nsc(N2CCC(N3CCC4(CC3)C[C@H](N(CCOC)C(C)=O)c3ccccc34)CC2)n1 [compound 505] | 25 to 100% | ++ (activity was measured to be between 2.0 μM and 5.0 μM) | > 100% | +++ (activity was measured to be less than or equal to 2.0 μM) |
| CN(C)C(=O)N1CC2(CCN(C3CCN(c4ncns4)CC3)CC2)c2ccccc21 [compound 506] | 25 to 100% | ++ (activity was measured to be between 2.0 μM and 5.0 μM) | > 100% | ++ (activity was measured to be between 2.0 μM and 5.0 μM) |
| Cc1csc(N2CCC(N3CCC4(CCN(C(=O)N(C)C)c5ccccc54)CC3)CC2)n1 [compound 508] | 25 to 100% | ++ (activity was measured to be between 2.0 μM and 5.0 μM) | 25 to 100% | ++ (activity was measured to be between 2.0 μM and 5.0 μM) |
| CN(C)C(=O)N1CC2(CCN(C3CCN(c4cnc(Br)cn4)CC3)CC2)c2ccccc21 [compound 509] | 25 to 100% | ++ (activity was measured to be between 2.0 μM and 5.0 μM) | > 100% | ++ (activity was measured to be between 2.0 μM and 5.0 μM) |
